2 molecules from US8193168B2, “Use of a TRPM5 inhibitor to regulate insulin and GLP-1 release” (Redpoint Bio Corporation, priority 2007, dated 2012) can be followed below.

This test deals with GLUTag cells. In words: GLP-1 release from GLUTag cells (GLP-1 ELISA). Conditions: 12.5 mM glucose, FIG. 17. The class given is cell-based, mouse. As to the method: Mouse GLUTag cells are a native intestinal cell line which expresses TRPM5. The cell line was obtained from Dr. Daniel J. Drucker in the Division of Endocrinology, Department of Medicine, at University of Toronto, and grown in Invitrogen Dulbecco's Modified Eagle's Medium (DMEM) high glucose (Cat #: 11995) with 10% fetal bovine serum (FBS) and 1× penn/strep antibiotic mix in a 37° C. incubator with 5% CO2.
All reagents and media were pre-warmed to room temperature prior to the beginning of the experiment. Substrate diluent and the light-sensitive Substrate were thawed out right before use.
BD 96-well Matrigel-coated plates (Fisher, Cat #: 08-774-166) with GLUTag cells were rehydrated using 100 μL of plating media (Invitrogen's (Cat #: 31985) OPTI-Modified Eagle's Medium (MEM) with 10% FBS and 1× penn/strep antibiotic mix) and incubated for 30 minutes in a 37° C. incubator with 5% CO2. GLUTag cells were then trypsinized and counted. A cell dilution with seeding density of 7.5×10^5 cells/ml of GLUTag cells was created. The rehydration media was aspirated from the Matrigel coated plate. […] of cell dilution were plated into each well of the plate. The plates were then incubated overnight in a 37° C. incubator with 5% CO2.
The following protocol utilized the Millipore GLP-1 ELISA Kit (Cat. #: EGLP-35K) to analyze GLP-1 secretion from GLUTag cells in the presence of TRPM5 inhibitors/enhancers and glucose.
Stock solutions and dilution plates of TRPM5 inhibitors or enhancers were prepared. 1% of bovine serum albumin (BSA) was added to Krebb's Ringer Bicarbonate Buffer (KRBB) right before use. KRBB consists of 118.5 mM NaCl, 2.54 mM CaCl2.2H2O, 1.19 mM KH2PO4, 4.74 mM KCl, 25 mM NaHCO3, 1.19 mM MgSO4.7H2O, and 10 mM HEPES buffer at pH 7.4. The cell plates were incubated with 100 μL of KRBB for 30 minutes. The KRBB buffer was then aspirated. This incubation step was repeated once. The KRBB buffer was aspirated and replaced with 150 μL of the same buffer containing various concentration of TRPM5 inhibitors or enhancers and glucose, i.e. 12.5 mM glucose and 1.5 μM TRPM5 inhibitors. KRBB buffer without the TRPM5 inhibitors/enhancers and glucose were also tested in triplicates. Static incubations of treated cells were then performed for 2 h in a 37° C. incubator with 5% CO2.
During the last 30 minutes of the two-hour incubation, 96-well ELISA plates were prepared as follows. […]
(In general: ELISA stands for enzyme-linked immunosorbent assay.)

For `COc1ccc(/C=N/NC(=O)Cc2cccc3ccccc23)cc1OC` [Example 3, (E)-N′-(3,4-Dimethoxybenzylidene)-2-(naphthalene-1-yl)acetohydrazide], the GLP-1 secretion result is “increase GLP-1 secretion”; the “efficacy and potency of GLP-1 secretion, compared between compounds” value is reported as “increases the efficacy of GLP-1 secretion”.
Turning to `COc1ccc(/C=N/NC(=O)CCn2c3ccccc3c3ccccc32)cc1OC` [Example 23, 3-Carbazol-9-ylpropionic acid (3,4-dimethoxybenzylidene)hydrazide], the GLP-1 secretion result is “increase GLP-1 secretion”; the “efficacy and potency of GLP-1 secretion, compared between compounds” value is reported as “more potent than the compound of Example 3”.
